Test results: US20250243180A1, “TARGETED PROTEIN DEGRADATION” (Monte Rosa Therapeutics AG, priority 2023, published 2025)
Read-outs that look alike come from different tables or passages of the source.

Columns and labels:
CRBN-DDB1 = CRBN-DDB1 (Homo sapiens (Human), UniProt Q96SW2); assay: Compound binding to CRBN by HTRF assay
Method in brief: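 HTRF displacement of Cy5-thalidomide probe (100 nM) from His-tagged CRBN-DDB1 (2.5 nM) with anti-His terbium cryptate, in HEPES/NaCl/TCEP/EDTA/Tween20 buffer; 11-point 1:3 dilution series, 30 min at ambient temperature. Signal (665/620 nm) normalized to lenalidomide and DMSO controls; EC50 fitted, Ki by Cheng-Prusoff from geometric mean EC50.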

Caspase-1 activity = Caspase-1 activity in human monocyte-derived macrophages, LPS/nigericin stimulation; type: cell-based; settings: Macrophage, 24 h pre-treatment, LPS 3 h then 10 μM nigericin 1 h, read-out: Caspase-1 IC50 (NIG)
Method: (§1) Human monocytes were enriched and isolated from a buffy coat of healthy donor whole blood with a RosetteSep™ Human Monocyte Enrichment Cocktail (Cat.No. 15068, StemCell) and Ficoll-Plaque PLUS (Cat.No. H8889, Sigma). Monocytes were differentiated into macrophages by treatment with 100 ng/mL M-CSF for 6 days at 37° C., 5% CO2. Differentiated macrophages were seeded overnight (50,000 cells/well) in 100 µL of medium in a 96-well, white-bottom plate at 37° C., 5% CO2. Cells were treated with a concentration range of MGD for 24 hours prior to stimulation with nigericin. Macrophages were primed with […] LPS for 3 h followed by 1 h stimulation with 10 μM nigericin. Media of stimulated macrophages were collected and assayed for caspase 1 activity directly (Promega G9951), according to manufacturer's instructions. For IL-1β release assay, media of stimulated macrophages were collected and stored at −20° C., then thawed at 4° C. before assaying for IL-1β activity (Promega W6011), according to manufacturer's instructions.

NEK7 = NEK7 (Homo sapiens (Human), UniProt Q8TDX7+Q96SW2); assay: NEK7 NanoBiT degradation assay in Cal51 NEK7 NanoBiT cell line; type: cell-based; settings: Cal51 NEK7 NanoBiT cells, 24 hours; for Dmax: CAL-51
Sequence of NEK7 (Q8TDX7 whole entry): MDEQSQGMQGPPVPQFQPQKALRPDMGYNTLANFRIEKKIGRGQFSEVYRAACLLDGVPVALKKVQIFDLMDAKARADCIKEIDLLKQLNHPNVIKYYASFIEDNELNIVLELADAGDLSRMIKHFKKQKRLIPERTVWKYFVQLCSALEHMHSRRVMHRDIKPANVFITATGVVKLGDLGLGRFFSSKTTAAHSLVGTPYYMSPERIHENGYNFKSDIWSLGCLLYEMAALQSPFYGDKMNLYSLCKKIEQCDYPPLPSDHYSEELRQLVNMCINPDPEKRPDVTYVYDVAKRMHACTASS
Sequence of NEK7 (Q96SW2 whole entry): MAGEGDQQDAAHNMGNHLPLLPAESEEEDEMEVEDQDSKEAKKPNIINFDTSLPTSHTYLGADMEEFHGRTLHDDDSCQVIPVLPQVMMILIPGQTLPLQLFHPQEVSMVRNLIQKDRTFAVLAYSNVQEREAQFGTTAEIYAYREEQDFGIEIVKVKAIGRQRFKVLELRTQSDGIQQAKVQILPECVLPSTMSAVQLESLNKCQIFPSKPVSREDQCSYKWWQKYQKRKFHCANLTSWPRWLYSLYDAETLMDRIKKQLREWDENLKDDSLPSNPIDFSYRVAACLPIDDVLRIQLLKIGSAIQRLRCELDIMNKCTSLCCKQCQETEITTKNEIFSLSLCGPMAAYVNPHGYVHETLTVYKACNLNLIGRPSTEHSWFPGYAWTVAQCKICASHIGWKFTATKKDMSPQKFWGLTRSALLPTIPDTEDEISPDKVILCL
Sequence of NEK7 (Q16531 2-1140 partner): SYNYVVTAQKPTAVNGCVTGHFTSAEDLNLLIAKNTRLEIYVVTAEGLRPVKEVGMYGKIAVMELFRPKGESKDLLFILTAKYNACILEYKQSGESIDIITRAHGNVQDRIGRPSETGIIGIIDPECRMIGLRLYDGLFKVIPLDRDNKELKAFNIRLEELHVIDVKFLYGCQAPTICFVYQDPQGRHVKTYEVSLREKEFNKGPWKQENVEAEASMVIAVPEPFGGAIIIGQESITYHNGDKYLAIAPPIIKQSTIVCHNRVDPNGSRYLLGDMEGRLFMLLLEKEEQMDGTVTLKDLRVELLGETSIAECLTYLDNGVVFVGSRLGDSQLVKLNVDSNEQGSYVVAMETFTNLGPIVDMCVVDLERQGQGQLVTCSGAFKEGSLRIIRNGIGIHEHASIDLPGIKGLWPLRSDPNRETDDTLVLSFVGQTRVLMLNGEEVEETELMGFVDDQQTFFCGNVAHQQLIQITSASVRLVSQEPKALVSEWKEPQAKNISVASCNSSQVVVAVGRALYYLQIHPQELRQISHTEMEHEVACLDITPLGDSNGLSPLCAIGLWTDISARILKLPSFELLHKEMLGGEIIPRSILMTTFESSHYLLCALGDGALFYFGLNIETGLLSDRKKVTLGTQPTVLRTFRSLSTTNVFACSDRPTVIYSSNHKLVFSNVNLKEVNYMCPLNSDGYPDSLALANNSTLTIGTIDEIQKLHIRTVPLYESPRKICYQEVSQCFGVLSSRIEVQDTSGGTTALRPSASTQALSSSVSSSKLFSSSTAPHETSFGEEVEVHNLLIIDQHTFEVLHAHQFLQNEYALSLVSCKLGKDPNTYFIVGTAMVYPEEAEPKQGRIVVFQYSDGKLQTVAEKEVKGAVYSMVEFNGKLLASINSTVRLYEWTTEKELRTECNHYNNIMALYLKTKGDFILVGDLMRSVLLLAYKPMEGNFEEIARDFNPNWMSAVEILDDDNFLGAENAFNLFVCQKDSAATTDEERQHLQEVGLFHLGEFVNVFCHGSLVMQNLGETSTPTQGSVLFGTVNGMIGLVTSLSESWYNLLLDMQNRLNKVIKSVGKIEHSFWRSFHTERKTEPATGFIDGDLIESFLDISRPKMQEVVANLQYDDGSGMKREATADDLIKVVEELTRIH
Method in brief: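 Cal51 cells with CRISPR knock-in HiBiT-tagged endogenous NEK7 plus stable LgBiT, in live-cell Endurazine medium, seeded 16 h before dosing. Compounds at final 1 μM to 0.05 nM for 24 h at 37 °C, then luminescence read. Response normalized to plate controls and fitted with a 4-parameter logistic giving EC50.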

IL-1β release = IL-1β release in human monocyte-derived macrophages, LPS/nigericin stimulation; type: cell-based; settings: Macrophage, 24 h pre-treatment, LPS 3 h then 10 μM nigericin 1 h, read-out: IL-1b IC50 (NIG)
Method: as §1

[1] = test system: New Zealand White rabbits, MSU crystal gout model; assay: In vivo rabbit gout model (intra-articular MSU): joint swelling and CD31 staining; settings: daily prophylactic treatment
Method: MSU crystals were prepared by dissolving uric acid (Aladdin, cat #U105582) in boiling water (1 g in 200 mL with 6 mL of 1 N NaOH). PH value was adjusted to 7.2 by HCl. The solution was stirred and cooled to room temperature and stored at 4° C. overnight. The precipitate was filtered with filter paper and dried under low heat to obtain MSU crystals. New Zealand White rabbits received an intra-articular injection of 1 mL of MSU crystals (50 mg/mL) into both knees (MSU group) or PBS (as vehicle, control group). n=10 for MSU groups; n=6 for PBS group.
For immunohistochemistry, bone sections were stained with anti-CD31 (Abcam #ab9498) diluted at 1:500. The nuclei were stained with hematoxylin. Slides were scanned using LEICA Aperio GT450 at 400× magnification. The number of positive blood vessels were counted blindly.
(a) To determine NEK7 degradation, spleens and peripheral blood mononuclear cells (PBMC) were analyzed by JESS for NEK7 and normalized to α-Tubulin from five representative animals. (b) The degree of joint swelling was determined by caliper measurements at the indicated time points. (c) Rabbit bone tissue sections were stained and quantified for anti-CD31 immunohistochemistry. Results expressed as mean±SEM. Statistical analysis was performed using two-way ANOVA. The difference was considered significant when p<0.05.

[2] = NEK7 degradation, read-out: NanoBiT Dmax
[3] = NEK7 degradation, read-out: NanoBiT DC50

Sequence of CRBN-DDB1 (Q96SW2 whole entry): as the sequence (Q96SW2 whole entry) above
Sequence of CRBN-DDB1 (Q16531 whole entry partner): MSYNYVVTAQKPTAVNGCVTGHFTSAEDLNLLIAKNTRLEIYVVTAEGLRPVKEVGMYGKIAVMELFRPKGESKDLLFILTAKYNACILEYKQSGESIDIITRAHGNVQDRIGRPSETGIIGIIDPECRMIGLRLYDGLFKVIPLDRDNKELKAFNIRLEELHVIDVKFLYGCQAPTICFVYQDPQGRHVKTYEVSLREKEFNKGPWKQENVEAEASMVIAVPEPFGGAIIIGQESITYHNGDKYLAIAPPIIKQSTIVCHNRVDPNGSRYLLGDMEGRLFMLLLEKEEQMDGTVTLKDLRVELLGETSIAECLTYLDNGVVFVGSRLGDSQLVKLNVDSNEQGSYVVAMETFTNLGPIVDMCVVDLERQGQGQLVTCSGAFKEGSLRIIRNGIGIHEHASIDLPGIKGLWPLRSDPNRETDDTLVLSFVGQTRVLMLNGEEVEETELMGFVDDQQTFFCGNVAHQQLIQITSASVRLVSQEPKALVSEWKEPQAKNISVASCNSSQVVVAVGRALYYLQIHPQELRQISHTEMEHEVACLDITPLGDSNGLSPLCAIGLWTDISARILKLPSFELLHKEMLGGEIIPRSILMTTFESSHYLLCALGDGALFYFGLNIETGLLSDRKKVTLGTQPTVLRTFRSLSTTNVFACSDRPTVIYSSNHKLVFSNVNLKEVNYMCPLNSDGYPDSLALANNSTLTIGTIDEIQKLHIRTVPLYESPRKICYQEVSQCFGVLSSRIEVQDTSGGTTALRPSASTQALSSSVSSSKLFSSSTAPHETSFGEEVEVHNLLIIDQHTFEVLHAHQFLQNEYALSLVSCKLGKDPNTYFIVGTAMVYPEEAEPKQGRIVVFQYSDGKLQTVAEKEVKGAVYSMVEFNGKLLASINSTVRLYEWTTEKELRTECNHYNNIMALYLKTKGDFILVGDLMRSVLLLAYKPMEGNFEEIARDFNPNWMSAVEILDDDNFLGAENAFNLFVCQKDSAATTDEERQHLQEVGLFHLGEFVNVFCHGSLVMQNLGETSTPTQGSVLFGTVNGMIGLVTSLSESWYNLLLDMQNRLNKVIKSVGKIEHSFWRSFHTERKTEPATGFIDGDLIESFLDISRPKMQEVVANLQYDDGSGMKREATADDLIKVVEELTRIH

Row | Compound | EC50 (CRBN-DDB1) | EC50 (CRBN-DDB1; HTRF class, Cereblon binding) | IC50 (Caspase-1 activity) | Dmax (NEK7; read-out: NEK7 NanoBiT Dmax) | Dmax (NEK7; [2]) | DC50 (NEK7; read-out: NEK7 NanoBiT DC50) | DC50 (NEK7; [3]) | IC50 (IL-1β release) | CD31 staining in bone tissue [1] | joint swelling induced by intra-articular MSU injection [1]
1 | Cc1cnc(C(C)(C)C(=O)NCc2cc(Cl)c(C3CCC(=O)NC3=O)c(Cl)c2)cn1 (centres unmarked) [Compound 162] | 290 nM | 100 to 1000 nM | 1.66 nM | 86% | > 75% | 13 nM | ≤ 100 nM | 2.03 nM |  | 
2 | Cc1ccc(C(C)(C)C(=O)NCc2cc(F)c(C3CCC(=O)NC3=O)c(Cl)c2)nn1 (centres unmarked) [Compound 275] | 210 nM | 100 to 1000 nM |  | 61% | 50 to 75% | 190 nM | 100 to 1000 nM |  |  | 
3 | CC(C)(C(=O)NCc1cc(F)c(C2CCC(=O)NC2=O)c(Cl)c1)c1ccc(OC(F)F)nn1 (centres unmarked) [Compound 276] | 190 nM | 100 to 1000 nM |  | 79% | > 75% | 33 nM | ≤ 100 nM |  |  | 
4 | CC(C)(C(=O)NCc1cc(F)c(C2CCC(=O)NC2=O)c(Cl)c1)c1nocc1C(F)(F)F (centres unmarked) [Compound 278] | 190 nM | 100 to 1000 nM |  | 71% | 50 to 75% | 76 nM | ≤ 100 nM |  |  | 
5 | Cc1conc1C(C)(C)C(=O)NCc1cc(F)c(C2CCC(=O)NC2=O)c(Cl)c1 (centres unmarked) [Compound 279] | 350 nM | 100 to 1000 nM |  | 54% | 50 to 75% | 672 nM | 100 to 1000 nM |  |  | 
6 | CC(C)(C(=O)NCc1cc(F)c(C2CCC(=O)NC2=O)c(Cl)c1)c1ccc(C(F)F)nn1 (centres unmarked) [Compound 280] | 290 nM | 100 to 1000 nM |  | 60% | 50 to 75% | 143 nM | 100 to 1000 nM |  |  | 
7 | Cc1ncc(C(C)(C)C(=O)NCc2cc(F)c(C3CCC(=O)NC3=O)c(Cl)c2)o1 (centres unmarked) [Compound 281] | 260 nM | 100 to 1000 nM |  | 67% | 50 to 75% | 179 nM | 100 to 1000 nM |  |  | 
8 | C[C@]12C=CC(=O)C=C1CC[C@@H]1[C@@H]2[C@@H](O)C[C@@]2(C)[C@H]1CC[C@]2(O)C(=O)CO [prednisolone] |  |  |  |  |  |  |  |  | improvement | improvement

Further compounds by falling EC50 (CRBN-DDB1), results first:

Row | EC50 (CRBN-DDB1) | EC50 (CRBN-DDB1; HTRF class, Cereblon binding) | IC50 (Caspase-1 activity) | Dmax (NEK7; read-out: NEK7 NanoBiT Dmax) | Dmax (NEK7; [2]) | DC50 (NEK7; read-out: NEK7 NanoBiT DC50) | DC50 (NEK7; [3]) | IC50 (IL-1β release) | Compound | CD31 staining in bone tissue [1] | joint swelling induced by intra-articular MSU injection [1]
9 | 190 nM | 100 to 1000 nM | 1.95 nM | 93% | > 75% | 5 nM | ≤ 100 nM | 1.96 nM | CC(C)(C(=O)NCc1cc(Cl)c(C2CCC(=O)NC2=O)c(Cl)c1)c1ncc(C(F)F)cn1 (centres unmarked) [Compound 181, N-(3,5-dichloro-4-(2,6-dioxopiperidin-3-yl)benzyl)-2-(5-(difluoromethyl)pyrimidin-2-yl)-2-methylpropanamide] |  | 
10 | 180 nM | 100 to 1000 nM |  | 61% | 50 to 75% | 155 nM | 100 to 1000 nM |  | CC(F)(F)c1ccc(C(C)(C)C(=O)NCc2cc(F)c(C3CCC(=O)NC3=O)c(Cl)c2)nn1 (centres unmarked) [Compound 277] |  | 
11 | 110 nM | 100 to 1000 nM |  | 78% | > 75% | 26 nM | ≤ 100 nM |  | Cc1ncc(C(C)(C)C(=O)NCc2cc(Cl)c(C3CCC(=O)NC3=O)c(Cl)c2)o1 (centres unmarked) [Compound 282] |  | 
12 | 90 nM | ≤ 100 nM | 0.75 nM | 92% | > 75% | 5 nM | ≤ 100 nM | 0.94 nM | CC(C)(C(=O)NCc1cc(Cl)c(C2CCC(=O)NC2=O)c(Cl)c1)c1ccc(C2CC2)nn1 (centres unmarked) [Compound 192] |  | 
